This data set in a line: Differential scanning calorimetry of polymer/water and polymer/PBS solutions (ice formation, Tg, phase behavior). Type of data set: physicochemical. Particulars: 50 wt % aqueous solution. Here is the method:
Differential Scanning calorimetry (DSC). DSC was used to determine the Tg of pure polymer and aqueous polymer solutions. PMGS is hygroscopic, so PMGS batches were dried in vacuo for at least four hours prior to sample preparation. Polymer solutions were made by mixing dry PMGS with phosphate buffer solution (PBS) and hand-mixing until a homogeneous solution was achieved. DSC samples were prepared by loading TZero pans with at least 5 mg of each solution and sealing them with hermetic lids to prevent evaporation. DSC samples of pure polymer were typically scanned from −20 to 120° C. four times, and the Tg was determined from the last heating cycle. DSC samples of polymer solutions were cooled to −90 and heated to 20° C., and the Tg was determined on the heating cycle.
Differential scanning calorimetry. For PMGS/water mixtures, 6-8 mg of solution was placed in an aluminum DSC pan. The samples were cooled at 1° C./min to −90° C., held at −90° C. for 1 minute, then heated to 20° C. at 10° C./min. For neat PMGS, the polymer was dried overnight under vacuum, then the polymer was removed from the vacuum and 5-10 mg was immediately transferred to an aluminum DSC pan. The sample was heated to 150° C. at 10° C./min, held for 1 min, then cooled to −10° C. at 10° C./min and held for 1 min. […]

“Also recorded” adds a separate entry of the source.

For `C[S+](C)[O-]` [DMSO, dimethyl sulfoxide], the “ice formation (in words)” value is “No ice formed; also recorded: enough to arrest ice formation in solution”.

These data come from patent publication US12714094B2, “Cryoprotectant polymers and methods of making and using thereof” (BOARD OF REGENTS, THE UNIVERSITY OF TEXAS SYSTEM, priority 2019, dated 2026).
